Measurements reported in patent US8883965B2, “Compounds” (Ferring B.V., priority 2006, dated 2014).
Positions of bridges follow the written chain, without caps; N, C: chain ends. Non-standard residues stand in square brackets, D forms with d. Residues, ends and D or L forms follow the SMILES beside them. Ala(cPent) = N[C@@H](CC1CCCC1)C(=O)O; Orn(iPr) = CC(C)NCCC[C@H](N)C(=O)O; Cha = N[C@@H](CC1CCCCC1)C(=O)O; Orn = NCCC[C@H](N)C(=O)O; Dab = NCC[C@H](N)C(=O)O; Ac4c = NC1(C(=O)O)CCC1

Molecular target: T1, hV1a receptor (Homo sapiens, UniProt P37288)
T1 construct: expressed in transfected cells; host or cells: HEK-293
Experiment: In vitro receptor assay: transcriptional reporter (luciferase) assay of agonist activity in HEK-293 cells transiently transfected with hV1a receptor
Assay type: cell-based
Details: hV1a receptor in HEK-293 cells, 5 hours exposure, geometric mean of at least three independent experiments, nanomol/L, read-out: EC50 (median effective concentration)
Protocol: Agonist activity of compounds on the hV1a receptor was determined in a transcriptional reporter assay by transiently transfecting a hV1a receptor expression DNA into HEK-293 cells in concert with a reporter DNA containing intracellular calcium responsive promoter elements regulating expression of firefly luciferase. See Boss, V., Talpade, D. J., Murphy, T. J. J. Biol. Chem. 1996, May 3; 271(18), 10429-10432 for further guidance on this assay.
The EC50 value given is the geometric mean expressed in nanomol/L (nM).

T1 sequence (P37288 whole entry): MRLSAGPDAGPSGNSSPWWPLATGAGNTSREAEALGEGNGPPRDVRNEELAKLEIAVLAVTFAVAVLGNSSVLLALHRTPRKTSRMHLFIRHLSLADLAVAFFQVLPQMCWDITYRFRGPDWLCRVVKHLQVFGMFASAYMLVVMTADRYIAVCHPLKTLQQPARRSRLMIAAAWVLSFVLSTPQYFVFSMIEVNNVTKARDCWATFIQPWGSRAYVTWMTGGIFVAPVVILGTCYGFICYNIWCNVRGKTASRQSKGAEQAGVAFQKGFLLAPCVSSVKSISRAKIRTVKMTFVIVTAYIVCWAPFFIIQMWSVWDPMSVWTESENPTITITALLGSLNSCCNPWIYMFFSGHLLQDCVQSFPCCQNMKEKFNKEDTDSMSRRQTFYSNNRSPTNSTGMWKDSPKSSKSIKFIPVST

In order of falling EC50:
1. NCCCC[C@H](NC(=O)[C@@H]1CCCN1C(=O)[C@@H]1CSSC[C@H](NC(=O)CNC(=O)CNC(=O)CN)C(=O)N[C@@H](Cc2ccc(O)cc2)C(=O)N[C@@H](Cc2ccccc2)C(=O)N[C@@H](CCC(N)=O)C(=O)N[C@@H](CC(N)=O)C(=O)N1)C(=O)NCC(N)=O [terlipressin, reference compound] (H-GGGCYFQNCPKG-NH2; disulfide 4-9)  82100 pM
2. CC[C@H](C)[C@@H]1NC(=O)[C@H](CC2CCCC2)NC(=O)[C@@H](N)CSSC[C@@H](C(=O)N2CCC[C@H]2C(=O)N[C@@H](CCN)C(=O)NCC(N)=O)NC(=O)[C@H](CC(N)=O)NC(=O)[C@H](CC(N)=O)NC1=O [compound 10] (H-C[Ala(cPent)]INNCP[Dab]G-NH2; disulfide 1-6)  17800 pM
3. CC[C@H](C)[C@@H]1NC(=O)[C@H](CC2CCCCC2)NC(=O)[C@@H](N)CSSC[C@@H](C(=O)N2CCC[C@H]2C(=O)N[C@@H](CCCN)C(=O)NCC(N)=O)NC(=O)[C@H](CC(N)=O)NC(=O)[C@H](CC(N)=O)NC1=O [compound 11] (H-C[Cha]INNCP[Orn]G-NH2; disulfide 1-6)  9930 pM
4. CC[C@H](C)[C@@H]1NC(=O)C2(CCC2)NC(=O)[C@@H](N)CSSC[C@@H](C(=O)N2CCC[C@H]2C(=O)N[C@@H](CCN)C(=O)NCC(N)=O)NC(=O)[C@H](CC(N)=O)NC(=O)[C@H](CCC(N)=O)NC1=O [compound 3, [AcBuc^2, Dbu^8]VT] (H-C[Ac4c]IQNCP[Dab]G-NH2; disulfide 1-6)  940 pM
5. CC[C@H](C)[C@@H]1NC(=O)[C@H](CC2CCCC2)NC(=O)[C@@H](N)CSSC[C@@H](C(=O)N2CCC[C@H]2C(=O)N[C@@H](CCN)C(=O)NCC(N)=O)NC(=O)[C@H](CC(N)=O)NC(=O)[C@H](CCC(N)=O)NC1=O [compound 2] (H-C[Ala(cPent)]IQNCP[Dab]G-NH2; disulfide 1-6)  800 pM
6. CC[C@H](C)[C@@H]1NC(=O)[C@H](CC2CCCCC2)NC(=O)[C@@H](N)CSSC[C@@H](C(=O)N2CCC[C@H]2C(=O)N[C@@H](CCCNC(C)C)C(=O)NCC(N)=O)NC(=O)[C@H](CC(N)=O)NC(=O)[C@H](CC(N)=O)NC1=O [compound 4, [Cha^2, Asn^4, Orn(i-Pr)^6]VT] (H-C[Cha]INNCP[Orn(iPr)]G-NH2; disulfide 1-6)  750 pM
7. CC[C@H](C)[C@@H]1NC(=O)[C@H](CC2CCCCC2)NC(=O)[C@@H](N)CSSC[C@@H](C(=O)N2CCC[C@H]2C(=O)N[C@@H](CCN)C(=O)NCC(N)=O)NC(=O)[C@H](CC(N)=O)NC(=O)[C@H](CCC(N)=O)NC1=O [compound 1] (H-C[Cha]IQNCP[Dab]G-NH2; disulfide 1-6; N-terminus and C-terminus assumed)  270 pM
